According to PubChem BioAssay AID256 (DTP/NCI, 2004):
“And” between values parts separate entries of the source, which are not always exact repeats. Identical values can stand only once. Inconclusive results and toxic doses are left out.

System: CD2F1 mice, L1210 leukemia ip, survival T/C
Assay: NCI In Vivo Anticancer Drug Screen. Data for tumor model L1210 Leukemia (intraperitoneal) in CD2F1 (CDF1) mice
Conditions: endpoint: mean survival time, higher = longer survival
Outline: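 Each value reflects a quotient of treated over vehicle control outcomes in mice with a transplanted tumor.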

[1] = dose: 50.0 mg/kg/injection, schedule: Q04DX002 (ip), vehicle: saline with Tween-80
[2] = dose: 100.0 mg/kg/injection, schedule: Q04DX002 (ip), vehicle: saline with Tween-80
[3] = dose: 200.0 mg/kg/injection, schedule: Q04DX002 (ip), vehicle: saline with Tween-80
[4] = dose: 50.0 mg/kg/injection, schedule: Q01DX009 (ip), vehicle: saline with Tween-80

O=S(=O)(Cl)c1cccc2c(S(=O)(=O)Cl)cccc12
T/C (dose: 20.0 mg/kg/injection, schedule: Q04DX003 (ip), vehicle: Klucel (hydroxypropylcellulose) (HPC)): 102 % of control
T/C (dose: 40.0 mg/kg/injection, schedule: Q04DX003 (ip), vehicle: Klucel (hydroxypropylcellulose) (HPC)): 104 % of control
T/C (dose: 80.0 mg/kg/injection, schedule: Q04DX003 (ip), vehicle: Klucel (hydroxypropylcellulose) (HPC)): 95 % of control
T/C (dose: 200.0 mg/kg/injection, schedule: Q04DX003 (ip), vehicle: Klucel (hydroxypropylcellulose) (HPC)): 109 % of control
T/C (dose: 400.0 mg/kg/injection, schedule: Q04DX003 (ip), vehicle: Klucel (hydroxypropylcellulose) (HPC)): 122 % of control

C=CCSc1ncnc2c1cnn2C1OC(CO)C(O)C1O (configuration not stated)
T/C (dose: 12.5 mg/kg/injection, schedule: Q01DX005 (ip), vehicle: water): 102 % of control
T/C (dose: 25.0 mg/kg/injection, schedule: Q01DX005 (ip), vehicle: water): 98 % of control
T/C (dose: 50.0 mg/kg/injection, schedule: Q01DX005 (ip), vehicle: water): 98 % of control
T/C (dose: 100.0 mg/kg/injection, schedule: Q01DX005 (ip), vehicle: water): 102 % of control

CC(=O)SCC1C(=O)n2c(cc3ccccc32)C(=O)N1C (configuration not stated)
T/C [1]: 89 % of control
T/C [2]: 96 % of control
T/C [3]: 101 % of control

O=C1CCC(C(=O)Nc2ccc(Cl)cc2Cl)N1 (configuration not stated)
T/C (dose: 25.0 mg/kg/injection, schedule: Q04DX002 (ip), vehicle: saline with Tween-80): 98 % of control
T/C [1]: 98 % of control
T/C [2]: 98 % of control
T/C [3]: 118 % of control
T/C (dose: 400.0 mg/kg/injection, schedule: Q04DX002 (ip), vehicle: saline with Tween-80): 97 % of control

Cn1c(N)c(N)c(=O)n(C)c1=O
T/C (dose: 100.0 mg/kg/injection, schedule: Q04DX002 (ip), vehicle: saline): 109 % of control
T/C (dose: 200.0 mg/kg/injection, schedule: Q04DX002 (ip), vehicle: saline): 102 % of control
T/C (dose: 400.0 mg/kg/injection, schedule: Q04DX002 (ip), vehicle: saline): 109 % of control

c1cc2n(n1)CCN2
T/C (dose: 8.0 mg/kg/injection, schedule: Q03HX008 (ip), vehicle: saline): 95 % of control
T/C (dose: 8.0 mg/kg/injection, schedule: Q03HX016 (ip), vehicle: saline): 96 % of control
T/C (dose: 8.0 mg/kg/injection, schedule: Q03HX024 (ip), vehicle: saline): 102 % of control
T/C (dose: 16.0 mg/kg/injection, schedule: Q03HX008 (ip), vehicle: saline): 98 % of control
T/C (dose: 16.0 mg/kg/injection, schedule: Q03HX016 (ip), vehicle: saline): 97 % of control
T/C (dose: 16.0 mg/kg/injection, schedule: Q03HX024 (ip), vehicle: saline): 104 % of control
T/C (dose: 25.0 mg/kg/injection, schedule: Q01DX009 (ip), vehicle: saline): 103 % of control
T/C (dose: 32.0 mg/kg/injection, schedule: Q01DX005 (ip), vehicle: saline): 100 % of control
T/C (dose: 32.0 mg/kg/injection, schedule: Q03HX008 (ip), vehicle: saline): 102 % of control
T/C (dose: 32.0 mg/kg/injection, schedule: Q03HX016 (ip), vehicle: saline): 98 % of control
T/C (dose: 32.0 mg/kg/injection, schedule: Q03HX024 (ip), vehicle: saline): 107 % of control
T/C (dose: 50.0 mg/kg/injection, schedule: Q04DX003 (ip), vehicle: saline): 98 % of control
T/C (dose: 50.0 mg/kg/injection, schedule: Q04DX003 (iv), vehicle: saline): 98 % of control
T/C (dose: 64.0 mg/kg/injection, schedule: Q01DX005 (ip), vehicle: saline): 103 % of control
T/C (dose: 64.0 mg/kg/injection, schedule: Q01DX009 (ip), vehicle: saline): 97 % of control
T/C (dose: 64.0 mg/kg/injection, schedule: Q03HX008 (ip), vehicle: saline): 109 % of control
T/C (dose: 64.0 mg/kg/injection, schedule: Q03HX016 (ip), vehicle: saline): 102 % of control
T/C (dose: 64.0 mg/kg/injection, schedule: Q03HX024 (ip), vehicle: saline): 116 % of control
T/C (dose: 100.0 mg/kg/injection, schedule: Q01DX009 (ip), vehicle: saline): 120 % of control
T/C (dose: 100.0 mg/kg/injection, schedule: Q04DX003 (ip), vehicle: saline): 102 % of control
T/C (dose: 100.0 mg/kg/injection, schedule: Q04DX003 (ip), vehicle: water): 120 % of control and 105 % of control
T/C (dose: 100.0 mg/kg/injection, schedule: Q04DX003 (iv), vehicle: saline): 98 % of control
T/C (dose: 128.0 mg/kg/injection, schedule: Q01DX001 (ip), vehicle: saline): 104 % of control
T/C (dose: 128.0 mg/kg/injection, schedule: Q01DX005 (ip), vehicle: saline): 114 % of control
T/C (dose: 128.0 mg/kg/injection, schedule: Q01DX009 (ip), vehicle: saline): 122 % of control
T/C (dose: 128.0 mg/kg/injection, schedule: Q04DX003 (ip), vehicle: saline): 105 % of control
T/C (dose: 128.0 mg/kg/injection, schedule: Q08DX002 (ip), vehicle: saline): 104 % of control
T/C (dose: 200.0 mg/kg/injection, schedule: Q01DX009 (ip), vehicle: saline): 118 % of control
T/C (dose: 200.0 mg/kg/injection, schedule: Q04DX003 (ip), vehicle: saline): 108 % of control
T/C (dose: 200.0 mg/kg/injection, schedule: Q04DX003 (ip), vehicle: water): 115 % of control and 120 % of control
T/C (dose: 200.0 mg/kg/injection, schedule: Q04DX003 (iv), vehicle: saline): 101 % of control
T/C (dose: 256.0 mg/kg/injection, schedule: Q01DX001 (ip), vehicle: saline): 110 % of control
T/C (dose: 256.0 mg/kg/injection, schedule: Q01DX005 (ip), vehicle: saline): 107 % of control
T/C (dose: 256.0 mg/kg/injection, schedule: Q01DX009 (ip), vehicle: saline): 100 % of control
T/C (dose: 256.0 mg/kg/injection, schedule: Q08DX002 (ip), vehicle: saline): 106 % of control
T/C (dose: 400.0 mg/kg/injection, schedule: Q04DX003 (ip), vehicle: saline): 124 % of control
T/C (dose: 400.0 mg/kg/injection, schedule: Q04DX003 (ip), vehicle: water): 153 % of control
T/C (dose: 512.0 mg/kg/injection, schedule: Q04DX003 (ip), vehicle: saline): 159 % of control
T/C (dose: 512.0 mg/kg/injection, schedule: Q08DX002 (ip), vehicle: saline): 165 % of control
T/C (dose: 600.0 mg/kg/injection, schedule: Q04DX003 (ip), vehicle: water): 101 % of control

Cc1ccc(C(=O)N/N=C/C(=O)O)cc1
T/C (dose: 25.0 mg/kg/injection, schedule: Q01DX009 (ip), vehicle: water): 102 % of control
T/C (dose: 50.0 mg/kg/injection, schedule: Q01DX009 (ip), vehicle: water): 95 % of control
T/C (dose: 100.0 mg/kg/injection, schedule: Q01DX009 (ip), vehicle: water): 102 % of control
T/C (dose: 200.0 mg/kg/injection, schedule: Q01DX009 (ip), vehicle: water): 95 % of control

CC(=O)OCC1OC(OC(C)=O)C(NC(=O)Nc2ccccc2)C(OC(C)=O)C1OC(C)=O (configuration not stated)
T/C (dose: 12.5 mg/kg/injection, schedule: Q01DX009 (ip), vehicle: other): 96 % of control
T/C (dose: 25.0 mg/kg/injection, schedule: Q01DX009 (ip), vehicle: other): 94 % of control
T/C (dose: 50.0 mg/kg/injection, schedule: Q01DX009 (ip), vehicle: other): 96 % of control
T/C (dose: 100.0 mg/kg/injection, schedule: Q01DX009 (ip), vehicle: other): 93 % of control
T/C (dose: 200.0 mg/kg/injection, schedule: Q01DX009 (ip), vehicle: other): 94 % of control

O=C(CNC(=O)Nc1cccc([N+](=O)[O-])c1)N/N=C/c1ccc(F)cc1
T/C [4]: 89 % of control
T/C (dose: 100.0 mg/kg/injection, schedule: Q01DX009 (ip), vehicle: saline with Tween-80): 93 % of control
T/C (dose: 200.0 mg/kg/injection, schedule: Q01DX009 (ip), vehicle: saline with Tween-80): 101 % of control

CN(C)C1CCC(Nc2nc(Nc3cc(Cl)cc(Cl)c3)nc3ccccc23)CC1 (configuration not stated)
T/C (dose: 25.0 mg/kg/injection, schedule: Q01DX009 (ip), vehicle: saline with Tween-80): 102 % of control
T/C (dose: 25.0 mg/kg/injection, schedule: Q04DX003 (ip), vehicle: saline with Tween-80): 101 % of control
T/C [4]: 96 % of control
T/C (dose: 50.0 mg/kg/injection, schedule: Q04DX003 (ip), vehicle: saline with Tween-80): 103 % of control
T/C (dose: 100.0 mg/kg/injection, schedule: Q04DX003 (ip), vehicle: saline with Tween-80): 98 % of control

C[N+](C)(C)Cc1ccc([N+](=O)[O-])cc1
T/C (dose: 5.0 mg/kg/injection, schedule: Q01DX001 (ip), vehicle: saline): 98 % of control
T/C (dose: 10.0 mg/kg/injection, schedule: Q01DX001 (ip), vehicle: saline): 106 % of control
T/C (dose: 20.0 mg/kg/injection, schedule: Q01DX001 (ip), vehicle: saline): 101 % of control
T/C (dose: 40.0 mg/kg/injection, schedule: Q01DX001 (ip), vehicle: saline): 98 % of control
T/C (dose: 80.0 mg/kg/injection, schedule: Q01DX001 (ip), vehicle: saline): 98 % of control
